Measurements taken from patent US20230000773A1, “NOVEL HEADGROUP LIPID COMPOUNDS AND COMPOSITIONS FOR INTRACELLULAR DELIVERY OF THERAPEUTIC AGENTS” (ModernaTX, Inc., priority 2019, published 2023).

Columns and labels:
[1] = Encapsulation efficiency (% EE), ribogreen; format: physicochemical; settings: nanoparticles, compound:DSPC:cholesterol:PEG 2 50:10:38:2 mol %
Excerpt: The efficiency of encapsulation of a therapeutic and/or prophylactic describes the amount of therapeutic and/or prophylactic that is encapsulated or otherwise associated with a lipid nanoparticle (e.g., an empty LNP or a loaded LNP) after preparation, relative to the initial amount provided. The encapsulation efficiency is desirably high (e.g., close to 100%). The encapsulation efficiency may be measured, for example, by comparing the amount of therapeutic and/or prophylactic in a solution containing the lipid nanoparticle (e.g., an empty LNP or a loaded LNP) before and after breaking up the lipid nanoparticle (e.g., an empty LNP or a loaded LNP) with one or more organic solvents or detergents. Fluorescence may be used to measure the amount of free therapeutic and/or prophylactic (e.g., RNA) in a solution.
(§1) Nanoparticle compositions including a therapeutic and/or prophylactic can be optimized according to the selection of a compound according to Formula (I), (I-1), (A), (A-1), (A-1a), or (A-1b), the selection of additional lipids, the amount of each lipid in the lipid component, and the wt:wt ratio of the lipid component to the therapeutic and/or prophylactic. Nanoparticle compositions including DSPC as a phospholipid, cholesterol as a structural lipid, PEG 2 as a PEG lipid, and a compound according to Formula (I), (I-1), (A), (A-1), (A-1a), or (A-1b) were prepared. The ratios of the lipids were 50:10:38:2 mol % for the lipid according to Formula (I), (I-1), (A), (A-1), (A-1a), or (A-1b):DSPC:cholesterol:PEG 2. […]

[2] = Apparent LNP pKa by 2-(p-toluidino)-6-napthalene sulfonic acid (TNS) assay; format: physicochemical; settings: pH at half of maximum fluorescence
[3] = Heparin-sepharose binding of nanoparticles
[4] = Size and polydispersity index of nanoparticles comprising compounds of the disclosure; format: physicochemical; settings: compound:DSPC:cholesterol:PEG 2 50:10:38:2 mol %
Excerpt: Lipid nanoparticles (e.g., empty LNPs or loaded LNPs) may be characterized by a variety of methods. For example, microscopy (e.g., transmission electron microscopy or scanning electron microscopy) may be used to examine the morphology and size distribution of a nanoparticle composition. Dynamic light scattering or potentiometry (e.g., potentiometric titrations) may be used to measure zeta potentials. Dynamic light scattering may also be utilized to determine particle sizes. Instruments such as the Zetasizer Nano ZS (Malvern Instruments Ltd, Malvern, Worcestershire, UK) may also be used to measure multiple characteristics of a nanoparticle composition, such as particle size, polydispersity index, and zeta potential.
as §1

hEPO mRNA = assay: hEPO expression in CD1-mice after intravenous administration of nanoparticles; format: in vivo; settings: 6 h after intravenous administration, mRNA dose 0.5 mg/kg, N:P 3.4, compound:DSPC:cholesterol:PEG 2 50:10:38:2
Protocol: The expression of hEPO mRNA in CD1-mice was measured 6 h after intravenous administration of nanoparticles comprising a compound of the disclosure, DSPC, cholesterol, and PEG 2 in a ratio of 50:10:38:2. […] Each composition was dosed to 8 animals at an mRNA dose of 0.5 mg/kg.

[5] = Surface hydrophobicity by Generalized Polarization by Laurdan (GPL); format: physicochemical; settings: normalized Generalized Polarization by Laurdan; higher N-GP = less polar surface
Excerpt: Nanoparticle compositions including a therapeutic and/or prophylactic can be optimized according to the selection of a compound according to Formula (I), (I-1), (A), (A-1), (A-1a), or (A-1b), the selection of additional lipids, the amount of each lipid in the lipid component, and the wt:wt ratio of the lipid component to the therapeutic and/or prophylactic. Nanoparticle compositions including DSPC as a phospholipid, cholesterol as a structural lipid, PEG 2 as a PEG lipid, and a compound according to Formula (I), (I-1), (A), (A-1), (A-1a), or (A-1b) were prepared. The ratios of the lipids were 50:10:38:2 mol % for the lipid according to Formula (I), (I-1), (A), (A-1), (A-1a), or (A-1b):DSPC:cholesterol:PEG 2.
Laurdan, a fluorescent aminonaphthalene ketone lipid, was post-inserted into the nanoparticle surface and the fluorescence spectrum of Laurdan was collected to determine the normalized Generalized Polarization (N-GP). Higher N-GP indicates a less polar surface.

% EE (ribogreen) [1]	LogIC50 (pKa) [2]	Relative % Area Bound by LNP [3]	PDI [4]	Size (nm) [4]	Average N-GP [5]	SMILES	Avg. [hEPO] mIU/mL (hEPO mRNA)
98.5%	6.85	31.46%	0.141	81.8 nm	0.655	CCCCCCCCC(CC)OC(=O)CCCCCCCN(CCCCCCCC(=O)OC(CCCCCCCC)CCCCCCCC)CCCNC1=CC(=O)NC1 (stereo not shown) [Compound 45, Heptadecan-9-yl 8-((3-((5-oxo-2,5-dihydro-1H-pyrrol-3-yl)amino)propyl)(8-oxo-8-(undecan-3-yloxy)octyl)amino)octanoate]	1.15E+05 mIU/mL
96%	7.27	2.90%	0.176	91.2 nm	0.888	CCCCCCCCC(CC)OC(=O)CCCCCCCN(CCCCCCCC(=O)OC(CCCCCCCC)CCCCCCCC)CCCNc1ncncc1NC (stereo not shown) [Compound 35, Heptadecan-9-yl 8-((3-((5-(methylamino)pyrimidin-4-yl)amino)propyl)(8-oxo-8-(undecan-3-yloxy)octyl)amino)octanoate]	3.71E+05 mIU/mL
96.8%	6.81	4.86%	0.155	73.2 nm	0.713	CCCCCCCCC(CC)OC(=O)CCCCCCCN(CCCCCCCC(=O)OC(CCCCCCCC)CCCCCCCC)CCCNS(C)(=O)=O (stereo not shown) [Compound 65, Heptadecan-9-yl 8-((3-(methylsulfonamido)propyl)(8-oxo-8-(undecan-3-yloxy)octyl)amino)octanoate]	3.64E+05 mIU/mL
97%	6.56	0.93%	0.108	66.8 nm	0.812	CCCCCCCCC(CC)OC(=O)CCCCCCCN(CCCCCCCC(=O)OC(CCCCCCCC)CCCCCCCC)CCCNS(=O)(=O)c1ncc[nH]1 (stereo not shown) [Compound 69, Heptadecan-9-yl 8-((3-(1H-imidazole-2-sulfonamido)propyl)(8-oxo-8-(undecan-3-yloxy)octyl)amino)octanoate]	2.61E+05 mIU/mL
98.2%	6.52	1.09%	0.132	58.8 nm	0.582	CCCCCCCCC(CC)OC(=O)CCCCCCCN(CCCCCCCC(=O)OC(CCCCCCCC)CCCCCCCC)CCCNC1=NCC(=O)N1 (stereo not shown) [Compound 57, Heptadecan-9-yl 8-((3-((4-oxo-4,5-dihydro-1H-imidazol-2-yl)amino)propyl)(8-oxo-8-(undecan-3-yloxy)octyl)amino)octanoate]	4.21E+04 mIU/mL
28.3%	6.80	3.99%	0.233	124.3 nm	0.890	CCCCCCCCC(CC)OC(=O)CCCCCCCN(CCCCCCCC(=O)OC(CCCCCCCC)CCCCCCCC)CCCNC(=O)c1ccc2c(c1)B(O)OC2 (stereo not shown) [Compound 62, Heptadecan-9-yl 8-((3-(1-hydroxy-1,3-dihydrobenzo[c][1,2]oxaborole-6-carboxamido)propyl)(8-oxo-8-(undecan-3-yloxy)octyl)amino)octanoate]	1.60E+05 mIU/mL
98.6%	7.05	47.35%	0.142	86.9 nm	0.493	CCCCCCCCC(CC)OC(=O)CCCCCCCN(CCCCCCCC(=O)OC(CCCCCCCC)CCCCCCCC)CCCNS(C)(=N)=O (stereo not shown) [Compound 58, Heptadecan-9-yl 8-((3-(methylsulfonoamidimidamido)propyl)(8-oxo-8-(undecan-3-yloxy)octyl)amino)octanoate]	9.03E+04 mIU/mL
37.7%	6.41	6.25%	0.273	126.4 nm	0.866	CCCCCCCCC(CC)OC(=O)CCCCCCCN(CCCCCCCC(=O)OC(CCCCCCCC)CCCCCCCC)CCCNS(=O)(=O)CCOCc1ccccc1 (stereo not shown) [Compound 63, Heptadecan-9-yl 8-((3-((2-(benzyloxy)ethyl)sulfonamido)propyl)(8-oxo-8-(undecan-3-yloxy)octyl)amino)octanoate]	1.90E+05 mIU/mL
98.3%	6.74	0%	0.16	72.7 nm	0.762	CCCCCCCCC(CC)OC(=O)CCCCCCCN(CCCCCCCC(=O)OC(CCCCCCCC)CCCCCCCC)CCCNS(=O)(=O)NC (stereo not shown) [Compound 59, Heptadecan-9-yl 8-((3-((N-methylsulfamoyl)amino)propyl)(8-oxo-8-(undecan-3-yloxy)octyl)amino)octanoate]	2.49E+05 mIU/mL
98.9%	7.20	69.04%	0.167	91.2 nm	–	CCCCCCCCC(CC)OC(=O)CCCCCCCN(CCCCCCCC(=O)OC(CCCCCCCC)CCCCCCCC)CCCNC(C(N)=O)C(N)=O (stereo not shown) [Compound 14, Heptadecan-9-yl 8-((3-((1,3-diamino-1,3-dioxopropan-2-yl)amino)propyl)(8-oxo-8-(undecan-3-yloxy)octyl)amino)octanoate]	6.20E+04 mIU/mL
49.1%	5.95	1.73%	0.375	79.6 nm	0.900	CCCCCCCCC(CC)OC(=O)CCCCCCCN(CCCCCCCC(=O)OC(CCCCCCCC)CCCCCCCC)CCCNC(=S)C1(C)CC1 (stereo not shown) [Compound 61, Heptadecan-9-yl 8-((3-(1-methylcyclopropane-1-carbothioamido)propyl)(8-oxo-8-(undecan-3-yloxy)octyl)amino)octanoate]	1.52E+03 mIU/mL
98.4%	7.23	37.96%	0.178	80.8 nm	–	CCCCCCCCC(CC)OC(=O)CCCCCCCN(CCCCCCCC(=O)OC(CCCCCCCC)CCCCCCCC)CCCNC(=O)CC(=O)NC (stereo not shown) [Compound 17, Heptadecan-9-yl 8-({3-[2-(methylcarbamoyl)acetamido]propyl}[8-oxo-8-(undecan-3-yloxy)octyl]amino)octanoate]	7.95E+04 mIU/mL
97.9%	6.00	0%	0.088	68.4 nm	–	CCCCCCCCC(CC)OC(=O)CCCCCCCN(CCCCCCCC(=O)OC(CCCCCCCC)CCCCCCCC)CCCNc1c(Cl)c(=O)n(C)n(C)c1=O (stereo not shown) [Compound 6, Heptadecan-9-yl 8-((3-((5-chloro-1,2-dimethyl-3,6-dioxo-1,2,3,6-tetrahydropyridazin-4-yl)amino)propyl)(8-oxo-8-(undecan-3-yloxy)octyl)amino)octanoate]	8.12E+04 mIU/mL
